Results on 10 molecules are retold here after publication PMC4835244 (Stem Cells Translational Medicine, 2016).

Structures can show the parent of a compound that is named as a salt. Where two headings read alike, the source gives them in different places.

Data set [1] has as its system ARE/Nrf2 pathway (CellSensor ARE-bla HepG2 cell line). Kind of data set: ARE-bla β-lactamase reporter gene assay. The format is cell-based. To be noted: HepG2 cells.
The test system of another data set is p53. As to conditions: ref PubChem AID 720552; cited from earlier work.
In data set [2] the test system is activator protein 1 (AP1). To be noted: assays previously performed; cited from earlier work.
Another data set relates to heat shock element (HSE). To be noted: ref PubChem AID 743228; cited from earlier work.
A further data set in a line: in vitro. To be noted: human.

With `OC[C@H]1O[C@H]([S-])[C@H](O)[C@@H](O)[C@@H]1O.[Au+]` [Aurothioglucose], in data set [1], the “Activation of ARE-β-lactamase expression” value is given as “directly activated ARE-β-lactamase expression” and the “Shape of activity in the ARE-bla assay” value was “bell shaped”. The “Cytotoxicity to HepG2 cells (CTG)” value in the data set on HepG2 cells is recorded as “toxic at the highest concentrations”. The “Activity in β-lactamase reporter gene assay for p53” value in the data set on p53 is reported as “not active”.

For the molecule `CC(C)(C)c1ccc(C(=O)CCCN2CCC(OC(c3ccccc3)c3ccccc3)CC2)cc1` [Ebastine], the “Cytotoxicity to HepG2 cells (CTG)” value in the data set with HepG2 cells (human, 18 h) was “cytotoxic to HepG2 cells”.

`c1ccc2c(c1)OCC(C1=NCCN1)O2` (centres unmarked) [Idazoxan hydrochloride]: in data set [1], the “Activation of ARE-β-lactamase expression” value is given as “directly activated ARE-β-lactamase expression” and the “Shape of activity in the ARE-bla assay” value is “simple increase in ARE activation”. The “Cytotoxicity to HepG2 cells (CTG)” value with HepG2 cells (human, 18 h) is “not toxic to HepG2 cells at the concentrations tested”. In addition, in data set [2], the “Activity in β-lactamase reporter gene assay for AP1” value is on record as “not active in any of these assays”. For the same molecule, the “Activity in β-lactamase reporter gene assay for HSE” value with heat shock element (HSE) is reported as “not active in any of these assays”. In addition, the “Activity in β-lactamase reporter gene assay for p53” value in the data set with p53 is on record as “not active in any of these assays”.

As for `O=C1c2ccccc2C(=O)c2c(NCCc3ccc(O)cc3)ccc(NCCc3ccc(O)cc3)c21` [JFD00244], the “Activation of ARE-β-lactamase expression” value in data set [1] is on record as “active in only one repetition”.

For the molecule `Cc1ccccc1/C=C/C1=NCCN1` [Metrazoline oxalate], in data set [1], the “Activation of ARE-β-lactamase expression” value is listed as “directly activated ARE-β-lactamase expression” and the “Shape of activity in the ARE-bla assay” value is listed as “simple increase in ARE activation”. Moreover, in the data set with HepG2 cells (human, 18 h), the “Cytotoxicity to HepG2 cells (CTG)” value is recorded as “not toxic to HepG2 cells at the concentrations tested”.

In the case of `COc1c(C)c2c(c(O)c1C/C=C(\C)CCC(=O)O)C(=O)OC2` [Mycophenolic acid], the “Activation of ARE-β-lactamase expression” value in data set [1] is “active in only one repetition”.

As to `COc1cccc2c1C(=O)c1c(O)c3c(c(O)c1C2=O)C[C@@](O)(C(=O)CO)C[C@@H]3O[C@H]1C[C@H](N2CCO[C@H](OC)C2)[C@H](O)[C@H](C)O1` [Nemorubicin], the “Cytotoxicity to HepG2 cells (CTG)” value with HepG2 cells (human, 18 h) is on record as “cytotoxic to HepG2 cells”.

In the case of `O=C1OC(=O)[C@H]2[C@@H]1[C@@H]1CC[C@H]2O1` [Norcantharidin], the “Activation of ARE-β-lactamase expression” value in data set [1] is recorded as “active in only one repetition”.

For orientation: IC50 means the concentration needed to halve the response being measured. For the molecule `CC(C)(C)c1ccc(C(O)CCCN2CCC(C(O)(c3ccccc3)c3ccccc3)CC2)cc1` (centres unmarked) [Terfenadine], the midpoint of inhibition in the data set “in vitro”, the IC50 at 24 h, lay at 6.7 µM.

Consider `C/C=C(/C)C(=O)O[C@H]1C(C)=C2[C@H]([C@@H]1OC(=O)CCCCCCC)[C@@](C)(OC(C)=O)C[C@H](OC(=O)CCC)[C@@]1(O)[C@H]2OC(=O)[C@@]1(C)O` [Thapsigargin], for which the “Cytotoxicity to HepG2 cells (CTG)” value with HepG2 cells (human, 18 h) is “cytotoxic to HepG2 cells”.
